Assay results reported in patent publication US20090234023A1, “SUBSTITUTED HYDROXYACETOPHENONE DERIVATIVES” (Riemser Arzneimittel AG, priority 2004, published 2009).
In brackets after ≈: the same amount, converted by molar mass. Read-outs that look alike come from different tables or passages of the source.

Experiments:
[1] = tested on: WI38 (fibroblasts); assay: Comparison test on non-pathogenic line; details: WI38, non-pathogenic line for comparison
[2] = tested on: mamma (breast) MCF-7; details: MCF7, 48 hours incubation
Method: (§2) The tests were carried out with the following human cancer cell lines:
(§3) The cells were cultivated in 25 ml cell culture flasks (Nunc) with 5 ml RPMI 1640 (Gibco BRL, Life Technologies) with 5% of foetal bovine serum.
(§4) The adhering cells were trypsinised (0.5 ml trypsin, Nuticell Nutrientes Cellulares). The trypsin was then inactivated by adding 5 ml 5% serum in RPMI 1640. A single cell suspension was prepared by pipetting carefully, the cells were counted, dilutions with an appropriate cell density, varying according to the cell line, were prepared and 100 μl/well were seeded in 96-well microtitre plates. The microtitre plates were pre-incubated for 24 hours at 37° C. to stabilise the cultures. The cells were incubated for 48 hours at 37° C. and 5% CO2 with 100 μl of the dilutions of the test substances (0.25; 2.5; 25 and 250 μg/ml, in three-fold). Doxirubicin (Sigma Chemical Co.) and tamoxifen (Sigma Chemical Co.) served as positive controls.
The sulforhodamine B (SRB) test for the antiproliferative activity was carried out according to the specifications of Skehan et al. (Journal of National Cancer Institute Vol. 82, pp. 1107-1118, 1990). […] The optical density was determined with an automated plate reader (Molecular Devices Max Microplate Reader) at 540 nm. […] The optical density was calculated with the Excel® program (Microsoft Office Package).

[3] = tested on: skin cancer (melanoma) UACC-62; details: for ED50 (effective dosage which killed 50% of the human cancer cells): UACC62, 48 hours incubation
Method: as §2, §3, §4
(§5) The sulforhodamine B (SRB) test for the antiproliferative activity was carried out according to the specifications of Skehan et al. (Journal of National Cancer Institute Vol. 82, pp. 1107-1118, 1990). The cells were fixed for one hour at 4° C. by protein precipitation with 50% trichloroacetic acid (TCA, Sigma Chemicals Co.) (50 μl/well, final concentration 10%)). The supernatant was discarded and the plates were washed with tap water five times. The cells were dyed for 30 minutes with 0.4% SRB in 1% acetic acid (50 μl/well) and subsequently washed four times with 1% acetic acid in order to remove the non-bound dye. The plates were dried and the bound dye was solubilised with 150 μl/well 10 mM Trizma buffer (Sigma Chemicals Co.). The optical density was determined with an automated plate reader (Molecular Devices Max Microplate Reader) at 540 nm. All determinations were conducted as threefold determination. The optical density was calculated with the Excel® program (Microsoft Office Package).

[4] = tested on: human cancer cell lines NCI-460, MCF-7, NCI-ADR, UACC-62, K-562, HT-29, 786-0, OVCAR-3, PC-3; assay: SRB test, all tested human cancer cell lines (FIGS. 1-6)
Method: as §2, §3, §4, §5

[5] = tested on: Lung NCI-460; details: for ED50 (effective dosage which killed 50% of the human cancer cells): NCI460, 48 hours incubation; for cytocidal activity: NCI-460 (lung cancer cell line)
Method: as §2, §3, §4, §5

[6] = tested on: B. subtilis; assay: Antimicrobial test (MIC), microtitre plates, TTC stain; type: cell-based; details: Bacillus subtilis, 48 h, 36° C.
Method: (§1) The inoculum for the tests was prepared by diluting the microorganisms in 0.85% NaCl, the dilution was set to level 0.5 according to McFarland and checked at 580 nm in the spectrophotometer. The cell suspensions were diluted to 10^4 UFC/ml for the application in the tests. The MIC tests were carried out according to the instructions of J. N. P. Eloff (Planta Medica Vol. 64, pp. 711-713, 1998)) in microtitre plates with 96 wells. […] The inoculum (100 μl) was placed in all wells and the plates were incubated for 48 h at a temperature of 36° C. The antimicrobial activity was detected by adding 20 μl of a 0.5% aqueous solution of TTC (tetrazolium chloride, Merck) per well. The minimal inhibition concentration (MIC) was defined as the lowest concentration of the compound that inhibited visible growth (indicated by TTC stain).

[7] = tested on: Staphylococcus aureus; assay: as above; type: cell-based; details: 48 h, 36° C.
Method: as §1

[8] = tested on: Salmonella choterasuis; assay: as above; type: cell-based; details: Salmonella choterasuis (Tables 3, 4: Salmonella), 48 h, 36° C.
Method: as §1

[9] = tested on: Escherichia coli; assay: as above; type: cell-based; details: 48 h, 36° C.
Method: as §1

[10] = tested on: Micrococcus luteus; assay: as above; type: cell-based; details: 48 h, 36° C.
Method: as §1

[11] = tested on: Candida albicans; assay: as above; type: cell-based; details: 48 h, 36° C.
Method: as §1

[12] = tested on: E. falcium; assay: as above; type: cell-based; details: 48 h, 36° C.
Method: as §1

[13] = tested on: Rhodococcus equi; assay: as above; type: cell-based; details: Rhodococcus (subgen. Prescottella) equi, 48 h, 36° C.
Method: as §1

[14] = tested on: S. epidermides; assay: Antimicrobial test (MIC), microtitre plates, TTC stain; type: cell-based; details: 48 h
Method: as §1

[15] = tested on: E. faecium; assay: as above; type: cell-based; details: Enterococcus faecium, 48 h, 36° C.
Method: as §1

[16] = tested on: S. falcium; assay: as above; type: cell-based; details: 48 h, 36° C.
Method: as §1

Compound | MIC [6] [mg/L] | MIC [7] [mg/L] | MIC [8] [mg/L] | MIC [9] [mg/L] | MIC [10] [mg/L] | MIC [11] [mg/L] | MIC [12] [mg/L] | MIC [13] [mg/L] | concentration at which cytostatic activity begins ([4]; against all tested cell lines) [µg/mL] | MIC [15] [mg/L] | MIC [16] [mg/L] | also measured
CC(=O)c1cc(CC=C(C)C)ccc1O [Compound L2] | 500 to 1000 (≈ 2450 to 4900 µM) | > 1000 | 500 to 1000 (≈ 2450 to 4900 µM) | 50 (≈ 245 µM) | 500 to 1000 (≈ 2450 to 4900 µM) | 50 (≈ 245 µM) | 500 to 1000 (≈ 2450 to 4900 µM) | > 1000 |  |  |  | activity against fibroblasts [1]: not active against fibroblasts; activity against fibroblasts ([1]; listed as 1-[2-Hydroxy-5-(3-methylbut-2-enyl)ethanone): without damaging the fibroblasts; ED50 (effective dosage which killed 50% of the human cancer cells) [2]: 6.0 mg/L; ED50 (effective dosage which killed 50% of the human cancer cells) [3]: 4.2 mg/L; activity on all cell lines ([4]; at concentrations ranging between 0.5 and 250 μg/ml): very strong activity; ED50 (effective dosage which killed 50% of the human cancer cells) [5]: 9.0 mg/L
CC(=O)c1cc(CC=C(C)C)ccc1OCC=C(C)C [Compound L3, 1-[5-(3-methylbut-2-enyl)-2-(3-methylbut-2-enyloxy)phenyl]-ethanone] | > 1000 | > 1000 | > 1500 | > 1000 | 500 to 1000 (≈ 1840 to 3670 µM) | 900 (≈ 3300 µM) | 500 to 1000 (≈ 1840 to 3670 µM) | > 1000 |  |  |  | 
CC(=O)c1ccc(OCC=C(C)C)cc1 [LP1, 1-[4-(3-methylbut-2-enyloxy)phenyl]ethanone] | > 1500 | > 1500 | 120 to 250 (≈ 587 to 1220 µM) | > 1500 | > 1500 | > 1500 |  | > 1500 | 25 | > 1500 | > 1500 | melting point: 47 °C; concentration at which cytocidal activity begins ([4]; against all tested cell lines): 250 µg/mL; MIC [14]: 60 to 120 mg/L (≈ 294 to 587 µM)
CC(=O)c1ccccc1OCC=C(C)C [Compound L1, 1-[2-(3-methylbut-2-enyloxy)phenyl]ethanone] | 500 to 1000 (≈ 2450 to 4900 µM) | 500 (≈ 2450 µM) | 250 (≈ 1220 µM) | > 1000 | 250 to 500 (≈ 1220 to 2450 µM) | 60 (≈ 294 µM) | 250 (≈ 1220 µM) | > 1000 |  |  |  | ED50 (effective dosage which killed 50% of the human cancer cells) [2]: 25.0 mg/L; ED50 (effective dosage which killed 50% of the human cancer cells) [3]: 45.0 mg/L; cytocidal activity ([3]; UACC-62): cytocidal activity; cytostatic activity (inhibition of cell growth) ([4]; against all tested cell lines): cytostatic activity; ED50 (effective dosage which killed 50% of the human cancer cells) [5]: 25.0 mg/L; cytocidal activity [5]: cytocidal activity
CC(=O)c1ccc(OCC=C(C)C)cc1OCC=C(C)C [2,4O, 1-[2,4-bis(3-methylbut-2-enyloxy)phenyl]ethanone] | 500 to 1000 (≈ 1730 to 3470 µM) | 500 to 1000 (≈ 1730 to 3470 µM) | 500 to 1000 (≈ 1730 to 3470 µM) | 500 to 1000 (≈ 1730 to 3470 µM) | 500 to 1000 (≈ 1730 to 3470 µM) | 500 to 1000 (≈ 1730 to 3470 µM) |  | 500 to 1000 (≈ 1730 to 3470 µM) | 25 | 500 to 1000 (≈ 1730 to 3470 µM) | 500 to 1000 (≈ 1730 to 3470 µM) | concentration at which cytocidal activity begins ([4]; against all tested cell lines): 250 µg/mL; MIC [14]: 500 to 1000 mg/L (≈ 1730 to 3470 µM)
C=CC(C)(C)c1cc(CC=C(C)C)cc(C(C)=O)c1O [LMK7, 1-[3-(1,1-dimethylallyl)-2-hydroxy-5-(3-methylbut-2-enyl)phenyl]-ethanone] |  |  |  |  |  |  |  |  | 25 |  |  | cytocidal activity [5]: did not, however, exhibit any cytocidal activity
O=C(N[C@H](CO)[C@H](O)c1ccc([N+](=O)[O-])cc1)C(Cl)Cl [Chloramphenicol, reference compound] | 20 (≈ 61.9 µM) | 20 (≈ 61.9 µM) | 60 (≈ 186 µM) | 40 (≈ 124 µM) | 50 (≈ 155 µM) |  | 120 (≈ 371 µM) | 40 (≈ 124 µM) |  | 120 (≈ 371 µM) | 120 (≈ 371 µM) | MIC ([14]; S. epidermides, 36° C., read-out: MIC): 40 mg/L (≈ 124 µM)
